Reference: patent US12286632B2, “Rationally-designed synthetic peptide shuttle agents for delivering polypeptide cargos from an extracellular space to the cytosol and/or nucleus of a target eukaryotic cell, uses thereof, methods and kits relating to same” (Feldan Bio Inc., priority 2016, dated 2025)
Ends that are not written are not given here. Peptide text beside a SMILES is read from it.

Columns and labels:
[1] = in vitro; conditions: human, HeLa cells
[2] = in vitro; conditions: human, HeLa cells; remark: listed apart in the source
[3] = test system: HeLa cells; assay: GFP-NLS protein transduction assay (flow cytometry: Pos cells %, viability %, relative fluorescence intensity; microscopy); conditions: GFP-NLS 5 μM; for Cell viability (%) (±St. Dev.; n = 3): Protocol B; for Cell viability (%) (±St. Dev.; n = 3) / FIG. 21B Cell viability (%) (±St. Dev.; n = 3): HeLa; for cell viability: peptide 20 μM, Protocol B (Table 10.3e); for FIG. 21B Cell viability (%) (±St. Dev.; n = 3): Table 8.1, 1 hour
[4] = Cell viability (%) (±St. Dev.; n = 3)
[5] = Table 10.1, shuttle 50 μM, 10 seconds
[6] = Cell viability (%) (±St Dev.; n = 3)
[7] = Table 10.3a, shuttle 50 μM, 10 seconds
[8] = Table 10.3e, shuttle 20 μM, 1 minute

| Compound | viability at 1 min, 10 µM [1, 4] | viability [2] | further results |
| --- | --- | --- | --- |
| HHHHHHKLLKRWEAKLAKALAKALAKHLAKALAKA [FSD35] | 81.7 ± 3.45% | 96.1 ± 1.67% | – |
| YGRKKRRQRRRCKWKLFKKIGAVLKVLTTG [TAT-CM18] | – | 44.8 ± 4.17% | Cell viability (%) (±St. Dev.; n = 3) [3, 5]: 23.5 ± 1.1%; Cell viability (%) (±St. Dev.; n = 3) ([3]; Table 10.3b, shuttle 50 μM, 10 seconds): 23.5 ± 1.1% |
| HHHHHHHHRQRRRWEARGGFLGGGGYARAARQARA [FSD33] | 98.1 ± 1.73% | 75.3 ± 4.19% | – |
| HHHHHHWARLARAFARAIKKLYARALRRQARTG [FSD7] | – | 60.9 ± 7.59% | viability [1, 6]: 38.5 ± 3.48% |
| HHHHHHKWKLARAFARALRAIKKLYARALRRQARTG [FSD11] | – | 46.2 ± 1.35% | viability [1, 6]: 60.9 ± 7.59% |
| CC[C@H](C)[C@H](NC(=O)[C@H](Cc1c[nH]cn1)NC(=O)[C@@H](NC(=O)[C@H](CC(C)C)NC(=O)[C@H](CS)NC(=O)[C@H](Cc1c[nH]cn1)NC(=O)[C@H](Cc1c[nH]cn1)NC(=O)[C@H](Cc1c[nH]cn1)NC(=O)[C@H](Cc1c[nH]cn1)NC(=O)[C@H](Cc1c[nH]cn1)NC(=O)[C@@H](N)Cc1c[nH]cn1)[C@@H](C)CC)C(=O)N[C@@H](Cc1c[nH]c2ccccc12)C(=O)N[C@@H](CCC(=O)O)C(=O)N[C@@H](C)C(=O)N[C@@H](CCCCN)C(=O)N[C@@H](CC(C)C)C(=O)N[C@@H](C)C(=O)N[C@@H](CCCCN)C(=O)N[C@@H](CCCCN)C(=O)N[C@@H](CS)C(=O)NCC(=O)NCC(=O)NCC(=O)NCC(=O)N[C@@H](Cc1ccc(O)cc1)C(=O)N[C@@H](C)C(=O)N[C@@H](CCCNC(=N)N)C(=O)N[C@@H](C)C(=O)N[C@@H](C)C(=O)N[C@@H](C)C(=O)N[C@@H](CCCNC(=N)N)C(=O)N[C@@H](CCC(N)=O)C(=O)N[C@@H](C)C(=O)N[C@@H](CCCNC(=N)N)C(=O)N[C@@H](C)C(=O)O [FSD36] (H-HHHHHHCLIHIWEAKLAKKCGGGGYARAAARQARA-OH) | 98.9 ± 0.38% | 97 ± 1.99% | – |
| HHHHHHKWKLFWEAKLAKYARAAARQARAARQARA [FSD27] | 96.6 ± 4.94% | 98 ± 0.63% | viability at 1 min, 10 µM ([1]; cell viability): 83.9 to 98% |
| YGRKKRYMLRLWYQNLRMYCKKAYAQHRARQHAKL [FSD40] | 83.9 ± 4.16% | 98.6 ± 1.08% | viability at 1 min, 10 µM ([1]; cell viability): 83.9 to 98% |
| CC[C@H](C)[C@H](NC(=O)[C@@H](NC(=O)[C@H](Cc1ccccc1)NC(=O)[C@@H](N)CCCCN)[C@@H](C)O)C(=O)N[C@H](C(=O)N[C@@H](Cc1ccccc1)C(=O)N1CCC[C@H]1C(=O)N[C@@H](Cc1c[nH]cn1)C(=O)N[C@@H](CC(N)=O)C(=O)N[C@@H](CCC(N)=O)C(=O)N[C@@H](CCCCN)C(=O)NCC(=O)N[C@@H](CC(N)=O)C(=O)N[C@@H](Cc1c[nH]c2ccccc12)C(=O)N[C@@H](CCCCN)C(=O)N[C@@H](CC(N)=O)C(=O)N[C@H](C(=O)N1CCC[C@H]1C(=O)N[C@@H](CO)C(=O)N[C@@H](CC(N)=O)C(=O)N[C@@H](Cc1ccc(O)cc1)C(=O)N[C@@H](Cc1c[nH]cn1)C(=O)N[C@@H](Cc1ccc(O)cc1)C(=O)N[C@@H](CS)C(=O)N1CCC[C@H]1C(=O)N[C@@H](Cc1ccc(O)cc1)C(=O)N[C@@H](C)C(=O)N[C@@H](CCCNC(=N)N)C(=O)N[C@@H](C)C(=O)N[C@@H](C)C(=O)N[C@@H](C)C(=O)N[C@@H](CCCNC(=N)N)C(=O)N[C@@H](CCC(N)=O)C(=O)N[C@@H](C)C(=O)N[C@@H](CCCNC(=N)N)C(=O)N[C@@H](C)C(=O)O)C(C)C)C(C)C [VSVG-PTD4] | – | 96.2 ± 2.57% | Cell viability (%) (±St. Dev.; n = 3) [3, 7]: 100% |
| HHHHHHKWKIARAFARSLKKLYARLLARQAKTGHHHHHH [FSD15] | – | 98.3 ± 1.07% | viability [1]: 96.1 ± 2.61% |
| YHHHHHKWKKRWEAKLAKALRAAGRQARAKALAKA [FSD31] | 97.8 ± 4.22% | 98.43 ± 0.43% | – |
| HHHHHHKWKLFKKIGAVLKVLTTGYARAAARQARAHHHHHH [His-CM18-PTD4-His] | – | 29.4 ± 2.38% | Cell viability (%) (±St. Dev.; n = 3) ([3]; Table 10.3c, shuttle 10 μM, incubation 1 min): 68.1 ± 2.7%; Cell viability (%) (±St. Dev.; n = 3) ([3]; Table 10.3c, shuttle 10 μM, incubation 2 min): 61.6 ± 3.2%; Cell viability (%) (±St. Dev.; n = 3) ([3]; Table 10.3c, shuttle 10 μM, incubation 5 min): 41.2 ± 4.4%; Cell viability (%) (±St. Dev.; n = 3) [3, 8]: 78.6 ± 1.1% |
| HHHHHHKLIHIWEAKLFKKIRAAARQARARRAAKA [FSD34] | 97.9 ± 8.18% | 96.4 ± 2.41% | viability at 1 min, 10 µM ([1]; cell viability): 83.9 to 98% |
| HHHHHHKWKLARAFARAIKKLYARALRRQARTGHHHHHH [FSD9] | 79.5 ± 6.33% | 36.1 ± 3.41% | viability [1, 6]: 67.3 ± 5.19%; viability at 1 min, 8 µM [1, 4]: 82.3 ± 7.16%; viability at 2 min, 5 µM [1, 4]: 45.6 ± 3.64% |
| LHHHHHKLIHIWEAKLAKALAKALARRAAARQARA [FSD41] | 79.5 ± 0.33% | 94.4 ± 2.81% | – |
| GHHHHHHHLIHIWEAKLAKLAKALARAAARQARAK [FSD38] | 98.1 ± 7.35% | 95 ± 2.78% | – |
| HHHKWKLFKKIGAVLKVLTTGYARAAARQARA [3His-CM18-PTD4] | – | 82 ± 6.81% | Cell viability (%) (±St. Dev.; n = 3) [3, 8]: 39.2 ± 3.3% |

| Compound | viability at 1 min, 10 µM [1, 4] | viability [2] | further results |
| --- | --- | --- | --- |
| HHHHHHHMAHLWESNARKFWKKAFAQHAAAHIAEA [FSD28] | 99.4 ± 4.04% | 97 ± 1.11% | – |
| HAHHAHHAHKWKLFKKIGAVLKVLTTGYARAAARQARA [3HA-CM18-PTD4] | – | 51.5 ± 4.83% | Cell viability (%) (±St. Dev.; n = 3) [3, 8]: 43.6 ± 2.8% |
| KWKLFKKIGAVLKVLTTGGGSYARAAARQARA [CM18-L1-PTD4] | – | 84.3 ± 5.64% | Cell viability (%) (±St. Dev.; n = 3) [3, 8]: 50.1 ± 3.8%; cell viability ([3]; 1 minute): increased cell viability |
| HHHHHHKWKLFKKIGAVLKVLTTGYGRKKRRQRRR [His-CM18-TAT] | – | 13.6 ± 0.18% | FIG. 21B Cell viability (%) (±St. Dev.; n = 3) ([3]; shuttle 1 μM): 95 ± 3.05%; FIG. 21B Cell viability (%) (±St. Dev.; n = 3) ([3]; shuttle 3 μM): 91 ± 5.18%; FIG. 21B Cell viability (%) (±St. Dev.; n = 3) ([3]; shuttle 5 μM): 86 ± 4.59%; Cell viability (%) (±St. Dev.; n = 3) [3, 5]: 35.2 ± 5.7%; Cell viability (%) (±St. Dev.; n = 3) [3, 7]: 35.2 ± 5.7% |
| HHHAHHHKWKLFKKIGAVLKVLTTGYARAAARQARA [HA-CM18-PTD4] | – | 53.2 ± 4.62% | Cell viability (%) (±St. Dev.; n = 3) [3, 8]: 68.3 ± 4.1% |
| HHHHAAVLKLWKRLLKLFRKGRRLKAKRAKAKR [FSD20] | – | 20.5 ± 3.53% | viability [1, 6]: 65.4 ± 6.18% |
| HHHHHHKWKLFKKIGAVLKVLTTGRRRRRRRRR [His-CM18-9Arg] | – | 31.63 ± 0.11% | Cell viability (%) (±St. Dev.; n = 3) [3, 5]: 45.8 ± 5.4%; Cell viability (%) (±St. Dev.; n = 3) [3, 7]: 45.8 ± 3.53% |
| HHHHHHHHRQRRRWEARGFLGGGGYARAARQARAA [FSD39] | 97.3 ± 2.07% | 99.2 ± 0.61% | – |
| KWKLFKKIGAVLKVLTTGYARAAARQARA [CM18-PTD4] | – | 49.6 ± 5.06% | Cell viability (%) (±St. Dev.; n = 3) [3, 8]: 33.9 ± 3.7%; cell viability ([3]; 1 minute): 33.9% |
| HHHHHHWLKLLRRAAKKAARLYRKLLRKARKLHHHHHH [FSD2] | – | 55.8 ± 4.19% | viability [1, 6]: 76.3 ± 5.99% |
| HHHHHHCLLKKWEAKLAKKIGGGGRQARAKALAKA [FSD30] | 99.1 ± 0.52% | 97.4 ± 2.06% | – |
| HHHHHHHHHHHHKWKLFKKIGAVLKVLTTGYARAAARQARA [12His-CM18-PTD4] | – | 97.5 ± 1.57% | Cell viability (%) (±St. Dev.; n = 3) [3, 8]: 33.4 ± 4.3% |
| KWKLFKKIGAVLKVLTTGGGSGGGSYARAAARQARA [CM18-L2-PTD4] | – | 93.7 ± 3.07% | Cell viability (%) (±St. Dev.; n = 3) [3, 8]: 64.0 ± 1.3%; cell viability ([3]; 1 minute): increased cell viability |
| HHHHHHKWKLARAFARAIKKLYARALRRQARTG [FSD8] | – | 42.3 ± 6.42% | viability [1, 6]: 64.8 ± 7.59% |
| HHHHHHLLKLWSRLLKLWTQGRRLKAKRAKA [FSD16] | – | 99.07 ± 0.73% | viability [1, 6]: 88.2 ± 2.66% |
| ALLGLFIKWVKKVGTLFRKAKAGAQNRRAKAQKGK [FSD26] | – | 97.2 ± 1.53% | viability [1, 6]: 59.3 ± 1.27% |
| KWKLFKKIGAVLKVLTTG [CM18, reference compound] | – | 99.4 ± 0.14% | Cell viability (%) (±St. Dev.; n = 3) ([3]; Table 10.4, peptide 50 μM, 10 seconds): 95 ± 1.2% |
